Values of other authors, collected in patent publication US9572829B2, “Treatment of ocular disorders” (Massachusetts Eye and Ear Infirmary, priority 2004, dated 2017).

parameters: unit not given here; conditions: typical value, general statement

Q: With `C=Cc1c(C)c2cc3nc(c(CC(=O)N[C@@H](CC(=O)O)C(=O)O)c4[nH]c(cc5nc(cc1[nH]2)C(C)=C5CC)c(C)c4C(=O)O)[C@@H](CCC(=O)O)[C@@H]3C` [N-aspartyl chlorin e6] as the compound, how does the “Time that photosensitizer persists in the target neovasculature” value (“Time that photosensitizer persists” for short) read?
A: about twenty

Q: For `CC(=O)[O-].CC(=O)[O-].CCc1c(CC)c2cc3nc(cnc4cc(OCCOCCOCCOC)c(OCCOCCOCCOC)cc4ncc4nc(cc1[n-]2)C(CCCO)=C4C)C(C)=C3CCCO.O.[Lu+3]` [lutetium texaphyrin], which “Time that photosensitizer persists” value is on record?
A: about twenty

Q: With benzoporphyrin derivative as the compound, how does the “Time that photosensitizer persists” value read?
A: about fifty
